Experiment [1] concerns the target human RIPK1 (Homo sapiens (Human), UniProt Q13546). As to the kind of experiment: KINOMEscan binding assay, human RIPK1. To be noted: Table 21. The gist of the method: (§1)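 Compound dilutions (11 points, 3-fold, mostly from 30,000 nM, 1% DMSO final) competed with immobilized ligand for DNA- or phage-tagged protein, and bead-bound protein was measured by qPCR. Kd values came from Hill-equation fits with slope −1 (Levenberg-Marquardt).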

The target in experiment [2] is human RIPK3 (Homo sapiens (Human), UniProt Q9Y572). As to the kind of experiment: KINOMEscan binding assay, human RIPK3. The following applies: Table 21. In outline: as §1
The target in experiment [3] is human MLKL (full length) (Homo sapiens (Human), UniProt Q8NB16). The experiment in a line: KINOMEscan binding assay, human MLKL (full length). The following applies: KINOMEscan, Table 21; read-out: Human MLKL (full-length) (KD). In outline:
as §1

We go through 14 compounds from patent US20250115598A1 (Anaxis Pharma Pty Ltd, priority 2021, published 2025).

Chain of human RIPK3 (Q9Y572 whole entry): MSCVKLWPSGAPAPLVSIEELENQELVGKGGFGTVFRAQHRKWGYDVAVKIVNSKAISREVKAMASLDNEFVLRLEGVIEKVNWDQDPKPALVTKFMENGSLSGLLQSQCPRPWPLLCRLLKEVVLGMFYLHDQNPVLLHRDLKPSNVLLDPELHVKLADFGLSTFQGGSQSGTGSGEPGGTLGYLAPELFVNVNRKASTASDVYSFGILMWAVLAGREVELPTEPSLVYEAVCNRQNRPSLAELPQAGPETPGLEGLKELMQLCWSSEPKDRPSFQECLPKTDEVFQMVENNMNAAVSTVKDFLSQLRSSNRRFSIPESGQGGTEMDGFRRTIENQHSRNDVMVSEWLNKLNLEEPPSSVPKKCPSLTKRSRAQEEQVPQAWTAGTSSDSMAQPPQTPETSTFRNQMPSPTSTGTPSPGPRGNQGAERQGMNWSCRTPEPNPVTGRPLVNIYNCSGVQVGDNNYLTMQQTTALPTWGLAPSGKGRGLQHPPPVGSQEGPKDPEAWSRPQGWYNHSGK
Chain of human MLKL (full length) (Q8NB16 whole entry): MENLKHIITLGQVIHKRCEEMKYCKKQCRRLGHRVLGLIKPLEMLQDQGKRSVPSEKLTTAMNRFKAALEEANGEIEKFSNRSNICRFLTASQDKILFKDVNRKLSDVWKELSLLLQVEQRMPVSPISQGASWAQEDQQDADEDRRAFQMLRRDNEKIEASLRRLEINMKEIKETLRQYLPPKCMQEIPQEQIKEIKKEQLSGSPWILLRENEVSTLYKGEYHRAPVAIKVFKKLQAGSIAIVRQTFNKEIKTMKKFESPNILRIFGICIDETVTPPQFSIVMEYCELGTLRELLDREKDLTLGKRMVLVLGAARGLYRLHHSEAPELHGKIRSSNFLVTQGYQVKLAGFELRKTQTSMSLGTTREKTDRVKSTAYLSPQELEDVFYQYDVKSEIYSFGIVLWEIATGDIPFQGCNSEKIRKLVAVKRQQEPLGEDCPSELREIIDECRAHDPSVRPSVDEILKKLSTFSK
Chain of human RIPK1 (Q13546 whole entry): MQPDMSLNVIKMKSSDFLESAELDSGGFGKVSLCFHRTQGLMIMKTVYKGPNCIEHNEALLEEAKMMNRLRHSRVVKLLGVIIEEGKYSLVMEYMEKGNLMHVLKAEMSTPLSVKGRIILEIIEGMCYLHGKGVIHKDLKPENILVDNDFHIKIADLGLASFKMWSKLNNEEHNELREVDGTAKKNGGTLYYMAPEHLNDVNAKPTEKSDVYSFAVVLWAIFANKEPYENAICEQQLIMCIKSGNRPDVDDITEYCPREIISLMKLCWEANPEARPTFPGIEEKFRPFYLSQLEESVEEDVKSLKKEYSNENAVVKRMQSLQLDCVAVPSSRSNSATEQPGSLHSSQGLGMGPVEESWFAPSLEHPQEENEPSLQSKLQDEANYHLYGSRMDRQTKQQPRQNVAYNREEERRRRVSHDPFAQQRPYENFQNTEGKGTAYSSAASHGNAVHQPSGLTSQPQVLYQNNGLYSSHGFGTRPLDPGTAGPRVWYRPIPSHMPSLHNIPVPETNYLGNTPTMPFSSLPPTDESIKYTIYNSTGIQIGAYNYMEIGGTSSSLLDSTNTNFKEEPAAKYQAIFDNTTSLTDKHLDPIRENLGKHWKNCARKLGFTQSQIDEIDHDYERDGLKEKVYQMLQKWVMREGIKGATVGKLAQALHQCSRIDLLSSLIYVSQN

As to `C[C@H](Oc1cc(-c2nn(C)c3c(-c4cnn(C5C[C@@H]6CN(C)C[C@@H]6C5)c4)cnc(N)c23)ccc1NS(=O)(=O)C(F)F)c1ccc(F)cc1` (stereo partly drawn) [Compound 164, N-(4-(4-amino-1-methyl-7-(1-((3aR,6aS)-2-methyloctahydrocyclo-penta[c]pyrrol-5-yl)-1H-pyrazol-4-yl)-1H-pyrazolo[4,3-c]pyridin-3-yl)-2-((S)-1-(4-fluorophenyl)eth-oxy)phenyl)-1,1-difluoromethane-sulfonamide], the results for the Kd in experiment [1], in experiment [2] and in experiment [3] were greater than 10 µM, greater than 10 µM and less than 0.001 µM, respectively.
Take `Nc1n[nH]c2nccc(-c3ccc(NS(=O)(=O)CC(F)(F)F)c(OCc4ccc(F)cc4)c3)c12` [Compound 67, N-(4-(3-Amino-1H-pyrazolo[3,4-b]pyridin-4-yl)-2-((4-fluorophenyl)methoxy)phenyl)-2,2,2-trifluoroethane-1-sulfonamide]: the dissociation constant (Kd) in experiment [1] is greater than 10 µM; in experiment [2], greater than 10 µM; in experiment [3], less than 0.001 µM.
Consider `C[C@H](Oc1cc(-c2nn(C)c3c(-c4cnn(C5CC6CCC(C5)N6C)c4)cnc(N)c23)ccc1NS(=O)(=O)C(F)F)c1ccc(F)cc1` (stereo partly drawn) [Compound 73, N-(4-(4-amino-1-methyl-7-(1-(8-methyl-8-azabicyclo[3.2.1]octan-3-yl)-1H-pyrazol-4-yl)-1H-pyrazolo[4,3-c]pyridin-3-yl)-2-((S)-1-(4-fluorophenyl)ethoxy)phenyl)-1,1-difluoromethanesulfonamide], for which the Kd was greater than 10 µM in experiment [1], greater than 10 µM in experiment [2] and less than 0.001 µM in experiment [3].
For `Cn1nc(-c2ccc(NS(=O)(=O)C(F)F)c(OCc3ncco3)c2)c2c(N)ncc(-c3cnn(C4CCOCC4)c3)c21` [Compound 151, N-(4-(4-amino-1-methyl-7-(1-(tetrahydro-2H-pyran-4-yl)-1H-pyrazol-4-yl)-1H-pyrazolo[4,3-c]pyridin-3-yl)-2-(oxazol-2-yl-methoxy)phenyl)-1,1-difluoromethane-sulfonamide], the Kd was greater than 10 µM in experiment [1], greater than 10 µM in experiment [2] and less than 0.001 µM in experiment [3].
With `C[C@H](Oc1cc(-c2nn(C)c3c(-c4cnn(C5(CN)CC5)c4)cnc(N)c23)ccc1NS(=O)(=O)C(F)F)c1ccc(F)cc1` [Compound 89, (S)—N-(4-(4-amino-7-(1-(1-(aminomethyl)cyclopropyl)-1H-pyrazol-4-yl)-1-methyl-1H-pyrazolo[4,3-c]pyridin-3-yl)-2-(1-(4-fluorophenyl)ethoxy)phenyl)-1,1-difluoromethanesulfonamide], the results for the Kd in experiment [1], in experiment [2] and in experiment [3] were greater than 10 µM, greater than 10 µM and less than 0.001 µM, respectively.
Regarding `C[C@H](Oc1cc(-c2nn(C)c3c(-c4cnn(C5CN(C)C5)c4)cnc(N)c23)ccc1NS(=O)(=O)C(F)F)c1ccc(F)cc1` [Compound 92, (S)-N-(4-(4-amino-1-methyl-7-(1-(1-methylazetidin-3-yl)-1H-pyrazol-4-yl)-1H-pyrazolo[4,3-c]pyridin-3-yl)-2-(1-(4-fluorophenyl)ethoxy)phenyl)-1,1-difluoromethanesulfonamide], the Kd was greater than 10 µM in experiment [1], greater than 10 µM in experiment [2] and less than 0.001 µM in experiment [3].
For `C[C@H](Oc1cc(-c2nn(C)c3c(C#CC4CCOCC4)cnc(N)c23)ccc1NS(=O)(=O)C(F)F)c1ccc(F)cc1` [Compound 58, (S)-N-(4-(4-amino-1-methyl-7-((tetrahydro-2H-pyran-4-yl)ethynyl)-1H-pyrazolo[4,3-c]pyridin-3-yl)-2-(1-(4-fluorophenyl)ethoxy)phenyl)-1,1-difluoromethane-sulfonamide], the Kd in experiment [1] is greater than 10 µM; in experiment [2] it was greater than 10 µM; in experiment [3], less than 0.001 µM.
In the case of `C[C@H](Oc1cc(-c2nn(C)c3c(-c4cnn(C5CCNCC5)c4)cnc(N)c23)ccc1NS(=O)(=O)C(F)F)c1ccc(F)cc1` [Compound 59, N-(4-{4-amino-1-methyl-7-[1-(piperidin-4-yl)-1H-pyrazol-4-yl]-1H-pyrazolo[4,3-c]pyridin-3-yl}-2-[(1 S)-1-(4-fluorophenyl)ethoxy]phenyl)-1,1-difluoromethanesulfonamide], the Kd was greater than 10 µM in experiment [1], greater than 10 µM in experiment [2] and less than 0.001 µM in experiment [3].
As to `C[C@H](Oc1cc(-c2nn(C)c3c(-c4ccncc4)cnc(N)c23)ccc1NS(=O)(=O)C(F)F)c1ccc(F)cc1` [Compound 18, (S)-N-(4-(4-amino-1-methyl-7-(pyridin-4-yl)-1H-pyrazolo[4,3-c]pyridin-3-yl)-2-(1-(4-fluorophenyl)ethoxy)phenyl)-1,1-difluoromethanesulfonamide], the Kd was greater than 10 µM in experiment [1], greater than 10 µM in experiment [2] and less than 0.001 µM in experiment [3].
As to `C[C@H](Oc1cc(-c2ccnc3[nH]nc(N)c23)ccc1NS(=O)(=O)C(F)F)c1ccc(F)cc1` [Compound 72, N-(4-(3-Amino-1H-pyrazolo[3,4-b]pyridin-4-yl)-2-((1 S)-1-(4-fluorophenyl)ethoxy)phenyl)-1,1-difluoromethanesulfonamide], the Kd in experiment [1] was greater than 10 µM; in experiment [2], greater than 10 µM; in experiment [3] it was less than 0.001 µM.
As for `CNCCn1cc(-c2cnc(N)c3c(-c4ccc(NS(=O)(=O)C(F)F)c(O[C@@H](C)c5ccc(F)cc5)c4)nn(C)c23)cn1` [Compound 82, (S)-N-(4-(4-amino-1-methyl-7-(1-(2-(methylamino)ethyl)-1H-pyrazol-4-yl)-1H-pyrazolo[4,3-c]pyridin-3-yl)-2-(1-(4-fluorophenyl)ethoxy)phenyl)-1,1-difluoromethanesulfonamide], the values for the Kd in experiment [1], in experiment [2] and in experiment [3] were greater than 10 µM, greater than 10 µM and less than 0.001 µM, respectively.
For the compound `C[C@H](Oc1cc(-c2nn(C)c3c(-c4cnn(C5CNC5)c4)cnc(N)c23)ccc1NS(=O)(=O)C(F)F)c1ccc(F)cc1` [Compound 94, (S)-N-(4-(4-amino-7-(1-(azetidin-3-yl)-1H-pyrazol-4-yl)-1-methyl-1H-pyrazolo[4,3-c]pyridin-3-yl)-2-(1-(4-fluorophenyl)ethoxy)phenyl)-1,1-difluoromethane-sulfonamide], the Kd in experiment [1] was greater than 10 µM; in experiment [2] it was greater than 10 µM; in experiment [3], less than 0.001 µM.
For `C[C@H](Oc1cc(-c2nn(C)c3c(-c4cnn(C5CCN(C)C5)c4)cnc(N)c23)ccc1NS(=O)(=O)C(F)F)c1ccc(F)cc1` (stereo partly drawn) [Compound 93, N-(4-(4-amino-1-methyl-7-(1-(1-methylpyrrolidin-3-yl)-1H-pyrazol-4-yl)-1H-pyrazolo[4,3-c]pyridin-3-yl)-2-((S)-1-(4-fluorophenyl)ethoxy)phenyl)-1,1-difluoromethanesulfonamide], the equilibrium dissociation constant (Kd) in experiment [1] was greater than 10 µM; in experiment [2] it was greater than 10 µM; in experiment [3], less than 0.001 µM.
In the case of `C[C@H](Oc1cc(-c2cnn3c(-c4ccncc4)cnc(N)c23)ccc1NS(=O)(=O)C(F)F)c1ccc(F)cc1` [Compound 39, (S)-N-(4-(4-amino-7-(pyridin-4-yl)pyrazolo[1,5-a]pyrazin-3-yl)-2-(1-(4-fluoro-phenyl)ethoxy)phenyl)-1,1-difluoromethane-sulfonamide], the Kd in experiment [1] is greater than 10 µM; in experiment [2] it was greater than 10 µM; in experiment [3] it was less than 0.001 µM.
